Assays:
[1] = system: Rhesus factors D, C, c, E and e on erythrocytes; experiment: Agglutination test and Rh phenotyping of coated erythrocytes; assay type: cell-based; details: 2 mg/ml final, 30 min 37° C.; one O Rh+ and two A Rh+ blood samples; vs untreated control
Description: Whole blood samples (one O, Rh+ blood sample and two A Rh+ blood samples) from the blood center were centrifuged in Eppendorf tubes in an Eppendorf 5810R centrifuge at 2500 rpm for 10 min at room temperature (20-25° C.) and the plasma was removed and discarded. The cell fractions were subject to three washing steps in 50 ml falcon tubes. Each washing step involved adding 45 ml phosphate buffered saline (PBS) to 1 ml cell fraction followed by centrifugation at 2500 rpm for 10 minutes at room temperature.
100 μl cell suspension was mixed with 900 μl PBS and 1000 μl PEG-phospholipid (4 mg/ml, polyethylene glycol-phospholipid with PEG of 5 kDa (PEG-phospholipid) in PBS, SUNBRIGHT® PP-050CN, N-(methylpolyoxyethylene oxycarbonyl)-1,2-dipalmitoyl-sn-glycero-3-phosphoethanolamine, sodium salt, NOF Corp., Japan) to coat the erythrocytes with 2 mg/ml PEG-phospholipid (final concentration) or 1000 μl PBS as control. The erythrocyte samples were incubated 30 min at 37° C. in an incubator under rotation in a POL-EKO laboratory incubator. The erythrocyte samples were washed three times with 2 ml PBS and centrifuged at 2500 rpm for 5 min at room temperature in a Heraeus Biofuge Pico centrifuge.
The washed erythrocyte samples were then subject to an agglutination test and Rh phenotyping. […]

[2] = system: porcine kidney transplant, ischemia reperfusion injury; experiment: Porcine allogeneic survival transplantation model (SM); assay type: in vivo, pig; details: for IFNγ level / IL-1α level / IL-1β level / IL-2 level / IL-4 level / IL-6 level / IL-10 level / IL-12 level / IL-18 level: vs untreated control kidneys
Description: During and after surgery, systemic blood was collected for up to 4 days and analyzed for creatinine, sodium, potassium and phosphate (Section for Clinical Chemistry, Uppsala University Hospital).
Multiplex protein analyses using multiplex Luminex xMAP Technology (Millipore Corporation, Billerica, MA, USA) were performed using a porcine specific kit for 12 cytokines/chemokines: Interferon-gamma (INFγ), Interleukins IL-1b, IL-2, IL-1a, IL-1RA, IL-4, IL-6, IL-10, IL-18, IL-8, IL-12, and TNF. Plasma was incubated with agent-specific-coloured magnetic beads, thereafter with detection antibodies and streptavidin-phycoerythrin (Millipore Corporation). Plates were measured using a MAGPIX instrument (Luminex Corporation, Austin, TX, USA). Raw data [median fluorescence intensity (MFI)] was translated into protein concentration (ng/ml) using a standard curve.
These studies were approved by the Ethics Committee for Animal Experimentation, Uppsala, Sweden, Dnr C123/14. For each of these studies (SM and CLSM) five donor pigs and 10 recipient pigs of both sexes were used. All pigs were certified SPF pigs (Yorkshire×Hampshire) and bred at Lövsta University herd, SLU, Sweden. At arrival to SLU the pigs were 8 weeks old.
For the SM study, the pigs were selected after typing for Swine Leucocyte Antigen (SLA) class 1 in the following manner: the donor pigs were obtained from two litters and not related to any of the recipients. The recipient pigs were siblings, matched in pairs according to SLA class 1 (see below). For the CLSM study, all recipient pigs were siblings and not related to the donors, but these the pigs were not SLA-typed.
SM study: the kidneys were retrieved en bloc using the same procedure as in the ANSM study. Also here, the kidneys were exposed to an initial warm ischemia of less than 5 minutes. […] Post preservation, the kidneys were randomized to receive either PEG-phospholipid (15 mL, 2 mg/mL) or HTK solution at +4° C. by injection through the renal artery after clamping of the renal vein. During a 40-60 min incubation, the renal artery and vein were maintained clamped. The SM study comprised 6 kidneys treated with PEG-phospholipid and 4 control kidneys.
The recipient pigs underwent allogeneic single kidney transplantation. Through a 15-20 cm abdominal midline incision, the iliac vessels in the right iliac fossa were identified and carefully mobilized. The distal segment of the vena cava as well as the iliac artery (from its emergence from the aorta) were mobilized, sealing the surrounding lymphoid tissue. The renal graft was thereafter placed in the right iliac fossa in the proximity of the iliac vessels. The renal vein and artery were trimmed, and subsequently anastomosed in an end-to-side fashion to the recipient's right iliac artery and distal vena cava using a polypropylene 7/0 running suture (PROLENE®, Ethicon, US). The ureters were implanted by extravesical ureteroneocystostomy to the top of the bladder by 6-0 polydioxanone suture (PDS®, Ethicon, US). Thereafter, bilateral nephrectomy of the native kidneys was performed. The midline incision was closed by running a 2/0 polyglactin (VICRYL®, Ethicon, US) fascia suture and skin clips. No anticoagulants were given to the recipient. After the inguinal transplantation was completed, urine was collected directly from the bladder by cystocentesis, showing that all of the transplanted kidneys had started to produce urine soon after reperfusion. By using a urine stick the sample was analyzed for proteinurea and hematuria. The mean duration of the surgery was 2.5 hours (1.75-3.25 hours).
During and after transplantation, EDTA blood was collected from the local renal vein at 0, 15, 30 and 60 min after reperfusion, and systemic blood samples were obtained at 1, 2, 3, and 4 days after surgery. […]

[3] = 60 min following transplantation
[4] = 4 days following transplantation
[5] = kidney vein, 5 min, in most cases
[6] = up to 4 days post-transplantation

## N-(methylpolyoxyethylene oxycarbonyl)-1,2-dipalmitoyl-sn-glycero-3-phosphoethanolamine [PEG-phospholipid]
[1]
  agglutination of erythrocytes (Rhesus factor antigens): inhibited agglutination
[2]; 5 min and necropsy day 4
  binding of C3b in renal biopsies: lower binding
[2]; [3]
  IFNγ level: not any significant difference
  IL-1α level: not any significant difference
  IL-1β level: not any significant difference
  IL-2 level: not any significant difference
  IL-4 level: not any significant difference
  IL-6 level: not any significant difference
  IL-10 level: not any significant difference
  IL-12 level: not any significant difference
  IL-18 level: not any significant difference
[2]; [4]
  IFNγ level: significantly lower levels
  IL-1α level: significantly lower levels
  IL-1β level: significantly lower levels
  IL-2 level: significantly lower levels
  IL-4 level: significantly lower levels
  IL-6 level: significantly lower levels
  IL-10 level: significantly lower levels
  IL-12 level: significantly lower levels
  IL-18 level: significantly lower levels
[2]; after 96 hours
  IL-1RA protein level: unaffected
  IL-8 protein level: unaffected
[2]; [5]
  IL-1a protein level: suppressed
  IL-12 protein level: suppressed
[2]; recipients' blood, 24-96 hours, vs control grafts
  creatinine levels post-transplantation: significantly lower
[2]; [6]
  C3a in blood samples: substantially lower
  TAT in blood samples: substantially lower
  sC5b-9 in blood samples: substantially lower
